# Test results published in paper PMC7281403, “Regulation of Tumor Immunity by Lysophosphatidic Acid” (Cancers, 2020).
# Where two headings read alike, the source gives them in different places.
# How the values were obtained:
# ATX [1] = tested on: ATX; set-up: method as in PMID 34788605; details: TILs from melanoma patients and peripheral CD8+ T cells; cited from earlier work
# CD8+ T cells = tested on: CD8+ T cells; set-up: method as in PMID 31231367; details: cited from earlier work
# LPAR5 [2] = molecular target: T1, LPAR5 (Homo sapiens, UniProt Q9H1C0); test: Ca2+ mobilization in LPAR5 expressing B103 cells; format: cell-based; set-up: expressed in transfected cells; host or cells: B103 cells
# T1 sequence (Q9H1C0 whole entry, species assumed): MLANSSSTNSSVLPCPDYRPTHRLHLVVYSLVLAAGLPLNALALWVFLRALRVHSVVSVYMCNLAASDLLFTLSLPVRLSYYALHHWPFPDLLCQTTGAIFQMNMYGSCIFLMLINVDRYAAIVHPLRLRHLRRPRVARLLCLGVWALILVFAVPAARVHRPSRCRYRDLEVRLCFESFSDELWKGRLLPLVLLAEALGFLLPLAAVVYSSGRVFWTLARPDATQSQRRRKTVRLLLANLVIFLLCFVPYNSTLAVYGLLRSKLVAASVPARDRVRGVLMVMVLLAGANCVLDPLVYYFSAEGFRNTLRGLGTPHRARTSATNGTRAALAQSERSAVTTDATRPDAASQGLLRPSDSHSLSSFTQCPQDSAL
# Excerpt: (§1) As an example, inhibition of LPAR5 in distinct cell types, such as CD8^+ T cells could help boost its immunosurveillance activity against cancer and impede metastasis. There is currently no FDA-approved LPA receptor antagonist for cancer therapy. […] We obtained both TC-LPA5-4 and UA-02-085 and tested for LPAR5 antagonism in two independent assays: Ca^2+ mobilization and β-Arrestin recruitment. […] AGP is present in several tissues and biological fluids including tumor ascites, atherosclerotic plaques, aqueous humor of the eye, and in platelet rich plasma. Thus, alkyl-LPA might have multiple actions in the TME as well as the cancer cells. […] We included as a positive control, Amgen35, a compound originally discovered by AMGEN investigators to be a LPAR2 antagonist with an IC50 of 0.8 µM [136]. The AMGEN publication predated the discovery of the LPAR4-6. […] Amgen35 has also been reported to have off-target effects in vivo [136]. […] The other putative LPAR5 antagonist compound, AS2727638, reported by Astellas Pharma in Japan, has only been characterized at LPAR1-3 but not at the other LPAR with high homology of LPAR5 [121].
# ATX [3] = molecular target: ATX (Homo sapiens, UniProt Q13822); test: ATX activity, fluorescent FS-3 substrate assay; format: biochemical; details: IC50 ± SD
# LPAR5 [4] = molecular target: T1, LPAR5; test: β-arrestin recruitment in LPAR5 expressing CHO-K1 cells; format: cell-based; set-up: expressed in transfected cells; details: LPA-induced β-arrestin recruitment, IC50 ± SD, NE = No effect, listed as TC-LPA5-4
# Excerpt: as §1
# [5] = set-up: method as in PMID 15172836; details: cited from earlier work
# LPAR1 [6] = tested on: LPAR1; set-up: method as in PMID 9525886; details: Jurkat T cells, LPAR1 plus SRE-driven luciferase reporter; cited from earlier work
# LPAR1 [7] = tested on: LPAR1; set-up: method as in PMID 11160288; details: cited from earlier work
# lymphocyte = tested on: lymphocyte; set-up: method as in PMID 11024010, PMID 11160288; details: bell shape dose-response curve dropping off above 1 µM; cited from earlier work
# LPAR2 [8] = molecular target: T2, LPAR2 (Homo sapiens, UniProt Q9HBW0); set-up: method as in PMID 11160288; details: LPA 10^−9–10^−6 M, anti-LPAR2 MAb 30–300 ng/mL; cited from earlier work
# T2 sequence (Q9HBW0 whole entry, species assumed): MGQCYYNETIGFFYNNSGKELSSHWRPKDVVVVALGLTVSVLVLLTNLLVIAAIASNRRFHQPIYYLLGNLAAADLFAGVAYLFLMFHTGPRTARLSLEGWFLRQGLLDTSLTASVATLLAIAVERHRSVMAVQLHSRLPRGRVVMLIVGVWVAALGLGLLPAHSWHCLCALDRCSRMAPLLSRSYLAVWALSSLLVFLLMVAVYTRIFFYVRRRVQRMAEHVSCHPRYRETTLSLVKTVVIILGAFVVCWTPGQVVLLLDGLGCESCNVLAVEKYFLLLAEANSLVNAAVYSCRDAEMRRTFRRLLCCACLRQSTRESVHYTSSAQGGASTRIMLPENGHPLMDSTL
# LPAR2 [9] = molecular target: T2, LPAR2; set-up: method as in PMID 9525886; details: Jurkat T cells, LPAR2 plus SRE-driven luciferase reporter; cited from earlier work
# Jurkat cell line = tested on: Jurkat cell line; set-up: method as in PMID 7775587; details: cotreatment with PMA compared to PMA alone; cited from earlier work
compound,measurement,setting,value
C[C@H](NC(=O)CCc1nc2cccnc2n1Cc1ccc(OC(F)(F)F)cc1)c1ccc(Cl)cc1 [IOA-289],effect of conditioned media from ATX-expressing tumor cells on T cell migration in presence of ATX inhibitor,ATX [1],failed to inhibit the migration of T cells
"CCCCCCCCCCCCCCCCCCOP(O)(O)=S [OTP, octadecyl thiophosphate]",in vitro tumor cell killing function,CD8+ T cells; mouse and human CD8+ T cells,decreased in vitro tumor cell killing function
same,granule exocytosis,CD8+ T cells; stimulation of CD8+ T cells,impaired granule exocytosis
O=C(CCN1CCN(C(=O)OCc2cc(Cl)cc(Cl)c2)CC1)c1ccc2[nH]c(=O)oc2c1 [PF-8380],effect of conditioned media from ATX-expressing tumor cells on T cell migration in presence of ATX inhibitor,ATX [1],failed to inhibit the migration of T cells
COc1cccc(-n2nc(C(=O)O)cc2-c2ccc(C3CCCCC3)c(Cl)c2)c1 [TC-LPA-5],LPAR5 IC50 (Ca^2+ Mobilization),"LPAR5 [2]; LPA-induced Ca2+ mobilization, LPAR5 expressing B103 cells, IC50 ± SD, NE = No effect, listed as TC-LPA5-4",inactive
same,Inhibition of AGP-induced Ca^2+ mobilization,"LPAR5 [2]; agonist alkyl glycerophosphate (AGP), unpublished",failed to inhibit
same,IC50,ATX [3],7.1 ± 0.6 µM
same,LPAR5 IC50 (β-arrestin),LPAR5 [4],inactive
lysophosphatidic acid [LPA],critical micellar concentration,[5]; acyl group myristoyl,1.850 mM
same,critical micellar concentration,[5]; acyl group oleoyl,0.346 mM
same,critical micellar concentration,[5]; acyl group palmitoyl,0.540 mM
same,critical micellar concentration,[5]; acyl group stearoyl,0.082 mM
same,LPA-dependent luciferase expression,LPAR1 [6],5 fold over control
same,migratory response in LPAR1 Jurkat transfectants,LPAR1 [7],neither LPA nor the anti-LPAR1 MAb induced a migratory response
same,concentration of maximal efficiency in modulating lymphocyte responses,lymphocyte,10^−10 to 10^−8 M
same,transmigration of LPAR2 Jurkat transfectants,LPAR2 [8],stimulated the transmigration
same,LPA-dependent luciferase expression,LPAR2 [9],20 fold over control
same,increase in IL-2 secretion,Jurkat cell line,five-fold
